Experimental data as given in PMC10815578 (International Journal of Molecular Sciences, 2024).
“And” between values parts separate entries of the source, which are not always exact repeats. Equal values may be shown once. Read-outs that look alike come from different tables or passages of the source.

Tests used:
OATP4C1 [1] = biological target: T1, OATP4C1 (Homo sapiens, UniProt Q6ZQN7); test: Inhibition of OATP4C1-mediated T3 uptake in OATP4C1/MDCKII cells; details: for inhibition at 10 min, 100 µM: human; for Ki: Ki for OATP4C1 (average); for alteration of OATP4C1-mediated transport (in words): 100 µM (theaflavin 50 µM)
T1 sequence (Q6ZQN7 1-724): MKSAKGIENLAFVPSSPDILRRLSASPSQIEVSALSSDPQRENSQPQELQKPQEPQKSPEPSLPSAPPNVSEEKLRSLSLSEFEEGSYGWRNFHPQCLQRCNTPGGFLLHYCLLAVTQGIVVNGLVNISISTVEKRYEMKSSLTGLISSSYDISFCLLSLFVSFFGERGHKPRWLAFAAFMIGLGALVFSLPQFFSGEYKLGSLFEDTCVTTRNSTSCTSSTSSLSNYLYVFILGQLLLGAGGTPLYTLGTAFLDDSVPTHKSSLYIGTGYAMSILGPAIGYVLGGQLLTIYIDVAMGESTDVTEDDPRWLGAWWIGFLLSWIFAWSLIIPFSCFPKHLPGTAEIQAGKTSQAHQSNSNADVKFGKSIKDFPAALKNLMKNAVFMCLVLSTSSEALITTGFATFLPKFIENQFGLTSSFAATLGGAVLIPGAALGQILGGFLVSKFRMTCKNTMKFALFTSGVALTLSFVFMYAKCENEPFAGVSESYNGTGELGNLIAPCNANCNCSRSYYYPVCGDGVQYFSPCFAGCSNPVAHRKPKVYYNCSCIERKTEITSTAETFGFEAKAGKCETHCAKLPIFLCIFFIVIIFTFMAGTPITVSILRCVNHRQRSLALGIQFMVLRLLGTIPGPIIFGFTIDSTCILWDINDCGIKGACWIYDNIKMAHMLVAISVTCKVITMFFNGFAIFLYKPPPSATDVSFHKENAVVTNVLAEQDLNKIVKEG
Experimental: Figure 3 Screening of the effect of food ingredients on OATP4C1-mediated transport. Cells were incubated with 1 µM T3 with or without food ingredients for 10 min at 37 °C. The concentration of the compounds was 100 µM, except for theaflavin (50 µM). The amount of OATP4C1-mediated uptake was calculated by subtracting the nonspecific uptake of T3 by mock cells from the total cellular uptake by OATP4C1-expressing cells. […] Dashed line represents 100% (control uptake in the absence of food ingredient).
The MDCKII cells transfected with OATP4C1 or an empty vector were established in our laboratory [18].
The cellular uptake of T3 was measured in monolayer cell cultures grown in 24-well plates. Cells were seeded at a density of 2.0 × 10^5 cells/well. Thereafter, the cells were incubated in a culture medium containing 5 mM sodium butyrate for 24 h before the uptake study. […] Cellular uptake was initiated by adding T3-containing KH buffer with or without each flavonoid. Uptake was terminated after 10 min by replacing the incubation buffer with ice-cold KH buffer. The cells were washed twice with ice-cold KH buffer. The concentration of T3 was measured using liquid chromatography/tandem mass spectrometry (LC/MS/MS). Cellular uptake was presented as the uptake amount divided by the amount of cellular protein quantified using the Bradford protein assay. The experiment was performed in triplicate (n = 3) and repeated three times. Flavonoids, except ellagic acid, were dissolved in dimethyl sulfoxide (DMSO) at a final concentration of less than 0.5%. A stock solution of ellagic acid (20 mM) was obtained by dissolving it in 0.05 M NaOH and was further diluted to 100 µM in KH buffer (the pH was adjusted to 7.4).
The experiment was performed in triplicate (n = 3) and repeated three times.

P-gp = details: Supplementary table; ref 40 of the supplement; cited from earlier work
OATP1B1 = details: cited from earlier work; for IC50: read-out: OATP1B1 IC50; for Ki: read-out: OATP1B1 Ki (asterisk)
OATP1B3 = details: Supplementary table, ref previous reports (superscript numbers), cited from earlier work; for IC50: read-out: OATP1B3 IC50; for Ki: read-out: OATP1B3 Ki (asterisk)
OATP2B1 = details: Supplementary table, ref previous reports (superscript numbers), cited from earlier work; for IC50: read-out: OATP2B1 IC50
OAT1 = details: Supplementary table; ref previous reports (superscript numbers); cited from earlier work
OATP4C1 [2] = biological target: T1, OATP4C1; test: Kinetic analysis of OATP4C1-mediated T3 uptake in the presence of inhibitors; assay type: cell-based; parameters: expressed in transfected cells; sodium butyrate induction before uptake
Experimental: Data are shown as the mean ± SE (n = 6). The kinetic curves were fitted to the Michaelis–Menten equation. […] Each curve represents the fitted line obtained by the kinetic analysis by JMP Pro 16.
The kinetic curves were fitted to the Michaelis–Menten equation. […] The experiment was performed in duplicate (n = 2) and repeated three times.

OAT3 = details: Supplementary table; ref previous reports (superscript numbers); cited from earlier work
[3] = pH 7.4, probe T3 (1 µM), inhibition of OATP4C1-mediated transport, 100 µM compound, 1 µM T3, 10 min, 37 °C, without AA
[4] = Supplementary table, ref previous reports (superscript numbers)
[5] = pH 7.4, probe T3 (1 µM), OATP4C1 inhibition degree, 100 µM, Supplementary table

In the case of `O=c1c(O)c(-c2ccc(O)c(O)c2)oc2cc(O)ccc12` [fisetin], the “inhibitory effect on OATP4C1-mediated transport in the presence of AA compared with its absence” value (“inhibitory effect … compared with its absence” below) (OATP4C1 [1]; 100 µM compound, 10 µM AA) is reported as “weakened”, the “OATP4C1 inhibition or elevation (class)” value (OATP4C1 [1]; Supplementary table) is reported as “No” and the inhibition at 10 min, 100 µM (OATP4C1 [1]; [3]) is reported as 24%.

In the case of `Oc1ccc(/C=C/c2cc(O)cc(O)c2)cc1` [resveratrol, Resveratrol], the IC50 (P-gp) is given as 6.64 µM, the IC50 (OATP1B1; [4]) is given as 9.1 µM and the IC50 (OATP1B3) is given as 11.6 µM. The IC50 (OATP2B1) was 8.3 µM, the inhibition at 10 min, 100 µM (OATP4C1 [1]; [5]) was 46% and the inhibition at 10 min, 100 µM (OATP4C1 [1]; [3]) was 46%.

In the case of `O=c1c(O)c(-c2ccc(O)cc2O)oc2cc(O)cc(O)c12` [morin], the IC50 (OAT1) is given as < 0.3 µM and 0.5 µM, the “inhibitory effect … compared with its absence” value (OATP4C1 [1]; 100 µM compound, 10 µM AA) is given as “weakened” and the “OATP4C1 inhibition or elevation (class)” value (OATP4C1 [1]; Supplementary table) is given as “Yes”. For the same molecule, the inhibition at 10 min, 100 µM (OATP4C1 [1]; [5]) was 57% and the inhibition at 10 min, 100 µM (OATP4C1 [1]; [3]) was no less than 50%.

For `C[C@@H]1O[C@@H](OC[C@H]2O[C@@H](Oc3c(-c4ccc(O)c(O)c4)oc4cc(O)cc(O)c4c3=O)[C@H](O)[C@@H](O)[C@@H]2O)[C@H](O)[C@H](O)[C@H]1O` [Rutin, rutin], the OATP1B1 elevation degree (OATP1B1; 50 µM, ref 2 of the supplement) is listed as 81.1%, the OATP1B1 inhibition degree (OATP1B1; 150 µM, ref 1 of the supplement) is listed as less than 50% and the “OATP1B1 inhibition or elevation (class)” value (OATP1B1; [4]) is listed as “Elevation”. The IC50 (OATP1B3) was 111.5 ± 1.1 µM, the IC50 (OATP2B1) was 60.7 ± 1.2 µM and the “OATP4C1 inhibition or elevation (class)” value (OATP4C1 [1]; Supplementary table) was “No”.

In the case of `O=c1c(-c2ccc(O)cc2)coc2cc(O)ccc12` [daidzein], the IC50 (OATP2B1) is listed as 22.3 µM and 20.7 µM, the “OATP4C1 inhibition or elevation (class)” value (OATP4C1 [1]) is listed as “Yes” and the “inhibitory effect … compared with its absence” value (OATP4C1 [1]) is listed as “weakened”. The inhibition at 10 min, 100 µM (OATP4C1 [1]; [5]) was 40% and the inhibition at 10 min, 100 µM (OATP4C1 [1]; [3]) was 40%.

With `O=c1c(O)c(-c2cc(O)c(O)c(O)c2)oc2cc(O)cc(O)c12` [Myricetin, myricetin] the “OATP4C1 inhibition or elevation (class)” value (OATP4C1 [1]; Supplementary table) was “No”.

For `O=c1c(O[C@@H]2O[C@H](CO)[C@H](O)[C@H](O)[C@H]2O)c(-c2ccc(O)c(O)c2)oc2cc(O)cc(O)c12` [Hyperoside], the IC50 (OATP2B1) is listed as 29.4 ± 1.5 µM and the “OATP4C1 inhibition or elevation (class)” value (OATP4C1 [1]; Supplementary table) is listed as “No”.

In the case of `O=c1c(O)c(-c2ccc(O)cc2)oc2cc(O)cc(O)c12` [kaempferol], the IC50 (OATP1B1; [4]) is given as 32.4 µM and 33 µM, the Ki (OATP1B1; [4]) is given as 16 ± 1.9 µM and the Ki (OATP1B3) is given as 24.4 ± 1.8 µM. The IC50 (OATP2B1) was 20.7 ± 1.8 µM, the Ki (OATP2B1; read-out: OATP2B1 Ki (asterisk)) was 15.1 ± 7.8 µM and the IC50 (OATP4C1 [1]; IC50 for OATP4C1, AA(+) 10 µM, 1 µM T3, 10 min) was 33.7 µM. For the same molecule, the IC50 (OATP4C1 [1]; IC50 for OATP4C1, AA(−), 1 µM T3, 10 min) was 29.3 µM, the Ki (OATP4C1 [1]; AA(+) 10 µM, 1 µM T3, 10 min) was 28.8 µM and the Ki (OATP4C1 [1]; AA(−), 1 µM T3, 10 min) was 25.1 µM. For the same molecule, the “Vmax of OATP4C1-mediated T3 uptake in the presence of the inhibitor” value (OATP4C1 [2]; inhibitor 30 µM, 10 µM AA, 10 min, 37 °C) was 517 ± 92.6 pmol/mg Protein/10 min and the “manner of inhibition of OATP4C1-mediated T3 uptake” value (OATP4C1 [2]; kinetic analysis) was “competitive manner”.

For `COc1cc(-c2oc3cc(O)cc(O)c3c(=O)c2O)ccc1O` [isorhamnetin], the IC50 (OATP1B3) is given as 3.1 µM, the IC50 (OATP2B1) is given as 0.82 µM and the “inhibitory effect … compared with its absence” value (OATP4C1 [1]; 100 µM compound, 10 µM AA) is given as “weakened”. The “OATP4C1 inhibition or elevation (class)” value (OATP4C1 [1]; Supplementary table) was “Yes” and the inhibition at 10 min, 100 µM (OATP4C1 [1]; pH 7.4) was 18%.

In the case of `O=C(O)/C=C/c1ccc(O)c(O)c1` [caffeic acid, Caffeic acid], the “alteration of OATP4C1-mediated transport (in words)” value (OATP4C1 [1]; 1 µM T3, 10 min, without AA) is reported as “did not inhibit” and the “OATP4C1 inhibition or elevation (class)” value (OATP4C1 [1]; Supplementary table) is reported as “No”.

In the case of `COc1cc(/C=C/C(=O)O)ccc1O` [ferulic acid, Ferulic acid], the IC50 (OAT1) is listed as 9.01 µM, the IC50 (OAT3) is listed as 7.35 ± 3.73 µM and the “alteration of OATP4C1-mediated transport (in words)” value (OATP4C1 [1]; 1 µM T3, 10 min, without AA) is listed as “did not inhibit”. For the same molecule, the “OATP4C1 inhibition or elevation (class)” value (OATP4C1 [1]; Supplementary table) was “No”.

For `O=c1cc(-c2ccc(O)cc2)oc2cc(O)cc(O)c12` [apigenin], the IC50 (OAT1) is given as 0.212 ± 0.01 µM, the IC50 (OAT3) is given as 0.41 ± 0.157 µM and the IC50 (OATP1B1; [4]) is given as 53.4 ± 2.1 µM. The Ki (OATP1B1; [4]) was 0.6 ± 0.2 µM, the Ki (OATP1B3) was 16.7 ± 1.6 µM and the “inhibition of OATP4C1-mediated transport” value (OATP4C1 [1]; 100 µM compound, 1 µM T3, 10 min, 37 °C, without AA) was 66%. The “OATP4C1 inhibition or elevation (class)” value (OATP4C1 [1]; Supplementary table) was “Yes”, the inhibition at 10 min, 100 µM (OATP4C1 [1]; [5]) was 54% and the inhibition at 10 min, 100 µM (OATP4C1 [1]; [3]) was no less than 50%.
